Measured values reported in patent US20230391768A2, “IMIDAZOPYRIDINE DERIVATIVES AND AZA-IMIDAZOPYRIDINE DERIVATIVES AS JANUS KINASE 2 INHIBITORS AND USES THEREOF” (Dana-Farber Cancer Institute, Inc., priority 2018, published 2023).

What was measured:
Assay in all cases: KINOMEscan
Type in all cases: binding
Details in all cases: read-out: percent of control
[1] = molecular target: HIPK2 (Homo sapiens (Human), UniProt Q9H2X6)
Procedure: (§1) In vitro profiling of Compound I-2 (1 μM) was performed using the DiscoveRx KINOMEscan® platform.

[2] = molecular target: CDK5 (Homo sapiens (Human), UniProt Q00535)
Procedure: as §1

[3] = molecular target: EGFR(L861Q) (Homo sapiens (Human), UniProt P00533, L861Q)
Procedure: as §1

[4] = molecular target: CLK2 (Homo sapiens (Human), UniProt P49760)
Procedure: as §1

[5] = molecular target: TAK1 (Homo sapiens (Human), UniProt O43318)
Procedure: as §1

[6] = molecular target: LATS2 (Homo sapiens (Human), UniProt Q9NRM7)
Procedure: as §1

[7] = molecular target: FGFR2 (Homo sapiens (Human), UniProt P21802)
Procedure: as §1

[8] = molecular target: PAK3 (Homo sapiens (Human), UniProt O75914)
Procedure: as §1

[9] = molecular target: ERBB3 (Homo sapiens (Human), UniProt P21860)
Procedure: as §1

[10] = molecular target: PLK2 (Homo sapiens (Human), UniProt Q9NYY3)
Procedure: as §1

[11] = molecular target: SYK (Homo sapiens (Human), UniProt P43405)
Procedure: as §1

[12] = molecular target: LYN (Homo sapiens (Human), UniProt P07948)
Procedure: as §1

[13] = molecular target: PRKG1 (Homo sapiens (Human), UniProt Q13976)
Procedure: as §1

[14] = molecular target: ABL1-phosphorylated (Homo sapiens (Human), UniProt P00519)
Procedure: as §1

[15] = molecular target: DAPK3 (Homo sapiens (Human), UniProt O43293)
Procedure: as §1

[16] = molecular target: VRK2 (Homo sapiens (Human), UniProt Q86Y07)
Procedure: as §1

[17] = molecular target: TYR (Homo sapiens (Human), UniProt Q06418)
Procedure: as §1

[18] = molecular target: MET(Y1235D) (Homo sapiens (Human), UniProt P08581, Y1235D)
Procedure: as §1

[19] = molecular target: AURKC (Homo sapiens (Human), UniProt Q9UQB9)
Procedure: as §1

[20] = molecular target: TAOK2 (Homo sapiens (Human), UniProt Q9UL54)
Procedure: as §1

[21] = molecular target: RSK2 (Kin.Dom.1-N-terminal) (Homo sapiens (Human), UniProt P51812)
Procedure: as §1

[22] = molecular target: BRAF(V600E) (Homo sapiens (Human), UniProt P15056, V600E)
Procedure: as §1

[23] = molecular target: YES (Homo sapiens (Human), UniProt P07947)
Procedure: as §1

[24] = molecular target: MARK1 (Homo sapiens (Human), UniProt Q9P0L2)
Procedure: as §1

[25] = molecular target: MAP3K1 (Homo sapiens (Human), UniProt Q13233)
Procedure: as §1

[26] = molecular target: RET (M918T) (Homo sapiens (Human), UniProt P07949, M918T)
Procedure: as §1

[27] = molecular target: MAPKAPK2 (Homo sapiens (Human), UniProt P49137)
Procedure: as §1

[28] = molecular target: FLT3-autoinhibited (Homo sapiens (Human), UniProt P36888)
Procedure: as §1

[29] = molecular target: EGFR (Homo sapiens (Human), UniProt P00533)
Procedure: as §1

[30] = molecular target: MRCKA (Homo sapiens (Human), UniProt Q5VT25)
Procedure: as §1

[31] = molecular target: PRKR (Homo sapiens (Human), UniProt P19525)
Procedure: as §1

[32] = molecular target: BRSK1 (Homo sapiens (Human), UniProt Q8TDC3)
Procedure: as §1

[33] = molecular target: IKK-epsilon (Homo sapiens (Human), UniProt Q14164)
Procedure: as §1

[34] = molecular target: PDGFRA (Homo sapiens (Human), UniProt P16234)
Procedure: as §1

[35] = molecular target: ANKK1 (Homo sapiens (Human), UniProt Q8NFD2)
Procedure: as §1

[36] = molecular target: TRKC (Homo sapiens (Human), UniProt Q16288)
Procedure: as §1

[37] = molecular target: MAP4K2 (Homo sapiens (Human), UniProt Q12851)
Procedure: as §1

[38] = molecular target: NDR1 (Homo sapiens (Human), UniProt Q15208)
Procedure: as §1

[39] = molecular target: PIK3CA(Q546K) (Homo sapiens (Human), UniProt P42336, Q546K)
Procedure: as §1

Sequence of MAP3K1 (Q13233 whole entry): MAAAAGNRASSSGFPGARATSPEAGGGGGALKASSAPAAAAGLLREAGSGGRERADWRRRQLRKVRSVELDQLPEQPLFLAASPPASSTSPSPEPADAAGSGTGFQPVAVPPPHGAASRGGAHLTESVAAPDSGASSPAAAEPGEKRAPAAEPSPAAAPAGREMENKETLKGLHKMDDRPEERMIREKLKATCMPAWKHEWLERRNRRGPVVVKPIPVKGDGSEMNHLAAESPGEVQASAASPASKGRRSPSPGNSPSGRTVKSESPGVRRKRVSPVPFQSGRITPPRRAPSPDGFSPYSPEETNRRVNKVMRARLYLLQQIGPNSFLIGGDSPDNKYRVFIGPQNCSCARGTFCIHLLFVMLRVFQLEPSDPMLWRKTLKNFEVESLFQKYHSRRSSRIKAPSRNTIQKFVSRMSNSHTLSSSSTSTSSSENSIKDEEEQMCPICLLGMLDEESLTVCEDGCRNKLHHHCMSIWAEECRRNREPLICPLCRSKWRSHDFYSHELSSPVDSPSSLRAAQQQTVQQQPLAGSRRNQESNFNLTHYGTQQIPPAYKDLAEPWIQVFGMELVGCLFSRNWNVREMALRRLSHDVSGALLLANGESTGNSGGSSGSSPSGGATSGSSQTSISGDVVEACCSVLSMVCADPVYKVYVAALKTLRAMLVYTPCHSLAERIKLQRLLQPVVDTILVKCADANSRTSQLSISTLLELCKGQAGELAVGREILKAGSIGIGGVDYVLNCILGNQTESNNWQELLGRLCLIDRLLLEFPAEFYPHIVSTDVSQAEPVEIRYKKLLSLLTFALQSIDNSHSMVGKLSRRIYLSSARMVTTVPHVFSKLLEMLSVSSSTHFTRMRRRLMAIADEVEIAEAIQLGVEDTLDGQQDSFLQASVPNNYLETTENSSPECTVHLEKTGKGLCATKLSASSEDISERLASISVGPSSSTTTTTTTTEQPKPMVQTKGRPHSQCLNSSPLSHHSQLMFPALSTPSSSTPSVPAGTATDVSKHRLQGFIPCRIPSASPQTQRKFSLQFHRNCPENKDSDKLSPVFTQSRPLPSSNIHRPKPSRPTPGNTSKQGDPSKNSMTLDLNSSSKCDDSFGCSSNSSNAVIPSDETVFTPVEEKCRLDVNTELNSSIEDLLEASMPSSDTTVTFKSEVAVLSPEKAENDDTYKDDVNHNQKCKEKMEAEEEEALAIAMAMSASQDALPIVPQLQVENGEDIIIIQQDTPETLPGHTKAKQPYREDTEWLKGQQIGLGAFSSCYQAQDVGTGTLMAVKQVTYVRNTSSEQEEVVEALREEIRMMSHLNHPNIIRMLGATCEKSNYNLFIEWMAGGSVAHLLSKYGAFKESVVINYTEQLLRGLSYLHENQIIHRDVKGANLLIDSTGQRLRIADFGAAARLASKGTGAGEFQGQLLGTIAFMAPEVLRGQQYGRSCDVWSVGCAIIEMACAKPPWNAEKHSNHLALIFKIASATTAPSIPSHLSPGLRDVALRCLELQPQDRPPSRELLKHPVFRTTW
Sequence of FLT3-autoinhibited (P36888 564-993 limits assumed): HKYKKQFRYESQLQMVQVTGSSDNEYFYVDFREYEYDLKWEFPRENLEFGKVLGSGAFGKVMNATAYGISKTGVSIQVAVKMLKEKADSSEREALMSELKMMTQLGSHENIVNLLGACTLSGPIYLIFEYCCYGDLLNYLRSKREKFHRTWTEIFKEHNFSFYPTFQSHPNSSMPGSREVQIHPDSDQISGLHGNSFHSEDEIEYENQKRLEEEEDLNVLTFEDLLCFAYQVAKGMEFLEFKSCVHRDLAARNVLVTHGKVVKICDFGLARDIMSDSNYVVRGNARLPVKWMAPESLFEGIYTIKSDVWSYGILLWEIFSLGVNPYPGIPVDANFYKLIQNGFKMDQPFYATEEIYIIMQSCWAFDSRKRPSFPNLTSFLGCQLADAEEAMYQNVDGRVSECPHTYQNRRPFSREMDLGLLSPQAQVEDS
Sequence of TYR (Q06418 41-890): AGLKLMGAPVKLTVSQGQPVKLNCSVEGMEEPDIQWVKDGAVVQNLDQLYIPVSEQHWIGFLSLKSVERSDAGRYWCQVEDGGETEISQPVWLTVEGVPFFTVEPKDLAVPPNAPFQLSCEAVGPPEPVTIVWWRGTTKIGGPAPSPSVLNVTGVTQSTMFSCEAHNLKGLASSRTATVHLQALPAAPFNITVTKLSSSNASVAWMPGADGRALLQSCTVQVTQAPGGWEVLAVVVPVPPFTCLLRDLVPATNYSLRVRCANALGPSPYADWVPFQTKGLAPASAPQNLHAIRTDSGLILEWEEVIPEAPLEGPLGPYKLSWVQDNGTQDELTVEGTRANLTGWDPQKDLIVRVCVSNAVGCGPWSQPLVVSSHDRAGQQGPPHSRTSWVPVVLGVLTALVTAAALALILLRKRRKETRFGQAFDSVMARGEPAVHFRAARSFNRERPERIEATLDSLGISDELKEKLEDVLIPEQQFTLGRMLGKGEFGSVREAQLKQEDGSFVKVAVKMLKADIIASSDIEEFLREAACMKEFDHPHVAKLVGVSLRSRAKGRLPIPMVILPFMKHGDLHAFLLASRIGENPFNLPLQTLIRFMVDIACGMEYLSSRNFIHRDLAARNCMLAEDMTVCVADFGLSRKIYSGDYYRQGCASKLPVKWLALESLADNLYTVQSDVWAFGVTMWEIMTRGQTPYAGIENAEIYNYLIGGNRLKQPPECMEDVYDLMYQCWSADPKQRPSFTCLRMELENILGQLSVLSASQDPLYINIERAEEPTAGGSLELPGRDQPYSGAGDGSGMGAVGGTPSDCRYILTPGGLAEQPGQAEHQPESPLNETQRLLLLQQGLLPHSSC
Sequence of TRKC (Q16288 32-839): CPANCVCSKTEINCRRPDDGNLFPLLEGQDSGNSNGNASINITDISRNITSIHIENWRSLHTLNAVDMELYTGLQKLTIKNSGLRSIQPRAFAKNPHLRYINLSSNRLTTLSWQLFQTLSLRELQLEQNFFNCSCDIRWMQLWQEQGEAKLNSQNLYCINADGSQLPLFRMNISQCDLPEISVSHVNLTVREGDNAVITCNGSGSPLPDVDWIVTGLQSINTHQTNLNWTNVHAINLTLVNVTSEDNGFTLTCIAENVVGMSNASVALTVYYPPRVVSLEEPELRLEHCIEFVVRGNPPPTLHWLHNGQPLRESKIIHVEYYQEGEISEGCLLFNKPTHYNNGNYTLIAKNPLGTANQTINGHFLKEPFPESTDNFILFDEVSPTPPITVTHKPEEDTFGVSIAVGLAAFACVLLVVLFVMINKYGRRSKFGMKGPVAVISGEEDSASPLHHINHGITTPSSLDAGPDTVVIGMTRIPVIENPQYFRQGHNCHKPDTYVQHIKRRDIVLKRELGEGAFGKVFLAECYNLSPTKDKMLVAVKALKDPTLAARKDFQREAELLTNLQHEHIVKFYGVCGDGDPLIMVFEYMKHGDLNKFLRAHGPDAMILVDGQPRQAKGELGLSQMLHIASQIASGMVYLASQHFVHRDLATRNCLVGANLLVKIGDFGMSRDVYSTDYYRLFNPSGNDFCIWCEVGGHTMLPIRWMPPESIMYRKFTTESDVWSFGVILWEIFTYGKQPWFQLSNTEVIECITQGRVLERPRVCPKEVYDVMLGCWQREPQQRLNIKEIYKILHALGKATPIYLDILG
Sequence of LYN (P07948 whole entry): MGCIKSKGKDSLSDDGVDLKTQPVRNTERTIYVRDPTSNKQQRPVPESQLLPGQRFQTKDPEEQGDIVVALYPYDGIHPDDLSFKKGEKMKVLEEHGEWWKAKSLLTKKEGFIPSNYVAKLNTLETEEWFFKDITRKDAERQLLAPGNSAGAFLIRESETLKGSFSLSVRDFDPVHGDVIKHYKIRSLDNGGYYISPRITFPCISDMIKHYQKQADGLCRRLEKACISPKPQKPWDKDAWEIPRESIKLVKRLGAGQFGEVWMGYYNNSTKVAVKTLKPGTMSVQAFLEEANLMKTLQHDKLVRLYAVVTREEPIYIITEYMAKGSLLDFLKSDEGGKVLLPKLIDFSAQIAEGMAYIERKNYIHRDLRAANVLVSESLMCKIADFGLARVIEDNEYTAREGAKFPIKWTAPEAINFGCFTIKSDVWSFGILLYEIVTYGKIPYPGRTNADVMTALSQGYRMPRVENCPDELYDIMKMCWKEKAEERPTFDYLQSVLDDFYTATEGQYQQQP
Sequence of IKK-epsilon (Q14164 whole entry): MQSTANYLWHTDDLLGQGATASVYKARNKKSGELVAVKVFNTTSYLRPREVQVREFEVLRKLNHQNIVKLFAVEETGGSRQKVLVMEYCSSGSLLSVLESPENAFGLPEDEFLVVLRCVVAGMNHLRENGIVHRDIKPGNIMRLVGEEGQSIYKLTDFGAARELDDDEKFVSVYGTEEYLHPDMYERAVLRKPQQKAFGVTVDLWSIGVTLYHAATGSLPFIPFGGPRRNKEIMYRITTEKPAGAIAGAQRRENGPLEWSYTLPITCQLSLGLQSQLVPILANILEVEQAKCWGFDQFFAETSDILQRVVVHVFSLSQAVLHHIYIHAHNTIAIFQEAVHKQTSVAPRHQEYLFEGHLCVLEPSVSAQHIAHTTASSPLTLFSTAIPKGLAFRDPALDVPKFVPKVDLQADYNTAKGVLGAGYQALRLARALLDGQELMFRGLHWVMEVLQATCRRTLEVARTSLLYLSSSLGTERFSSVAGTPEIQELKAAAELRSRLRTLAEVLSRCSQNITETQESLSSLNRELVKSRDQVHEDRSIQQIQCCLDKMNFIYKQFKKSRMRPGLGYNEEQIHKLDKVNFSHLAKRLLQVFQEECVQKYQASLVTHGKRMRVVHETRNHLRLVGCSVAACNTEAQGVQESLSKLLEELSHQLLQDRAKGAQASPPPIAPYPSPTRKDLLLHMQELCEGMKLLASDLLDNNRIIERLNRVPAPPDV

SMILES	remaining binding at 1 µM [1]	remaining binding at 1 µM [2]	remaining binding at 1 µM [3]	remaining binding at 1 µM [4]	remaining binding at 1 µM [5]	remaining binding at 1 µM [6]	remaining binding at 1 µM [7]	remaining binding at 1 µM [8]	remaining binding at 1 µM [9]	remaining binding at 1 µM [10]	remaining binding at 1 µM [11]	remaining binding at 1 µM [12]	remaining binding at 1 µM [13]	remaining binding at 1 µM [14]	remaining binding at 1 µM [15]	remaining binding at 1 µM [16]	remaining binding at 1 µM [17]	remaining binding at 1 µM [18]	remaining binding at 1 µM [19]	remaining binding at 1 µM [20]	also measured
CCN1CCN(Cc2cc(NC(=O)c3ccc(C)c(-c4ccc5nc(NC(=O)C6CC6)cn5n4)c3)cc(C(F)(F)F)c2)CC1 [Compound I-2, 3-(2-(cyclopropanecarboxamido)imidazo[1,2-b]pyridazin-6-yl)-N-(3-((4-ethylpiperazin-1-yl)methyl)-5-(trifluoromethyl)phenyl)-4-methylbenzamide]	93%	6.6%	82%	48%	1.1%	79%	67%	82%	100%	90%	1.9%	0.55%	100%	0.1%	93%	88%	26%	8.7%	84%	8.6%	remaining binding at 1 µM [21]: 88%; remaining binding at 1 µM [22]: 1.7%; remaining binding at 1 µM [23]: 4.7%; remaining binding at 1 µM [24]: 91%; remaining binding at 1 µM [25]: 97%; remaining binding at 1 µM [26]: 0.05%; remaining binding at 1 µM [27]: 72%; remaining binding at 1 µM [28]: 56%; remaining binding at 1 µM [29]: 31%; remaining binding at 1 µM [30]: 91%; remaining binding at 1 µM [31]: 97%; remaining binding at 1 µM [32]: 100%; remaining binding at 1 µM [33]: 80%; remaining binding at 1 µM [34]: 1.1%; remaining binding at 1 µM [35]: 100%; remaining binding at 1 µM [36]: 0.05%; remaining binding at 1 µM [37]: 0.05%; remaining binding at 1 µM [38]: 100%; remaining binding at 1 µM [39]: 76%
CCN1CCN(Cc2cc(NC(=O)c3ccc(C)c(-c4ccc5nc(NC(=O)C6CC6)cn5c4)c3)cc(C(F)(F)F)c2)CC1 [Compound I-6, 3-(2-(cyclopropanecarboxamido)imidazo[1,2-a]pyridin-6-yl)-N-(3-((4-ethylpiperazin-1-yl)methyl)-5-(trifluoromethyl)phenyl)-4-methylbenzamide]	94%	52%	54%	100%	2.7%	85%	57%	66%	93%	96%	0.65%	0.6%	87%	0.1%	100%	92%	47%	8.9%	91%	7.6%	remaining binding at 1 µM [21]: 78%; remaining binding at 1 µM [22]: 5.9%; remaining binding at 1 µM [23]: 1.6%; remaining binding at 1 µM [24]: 77%; remaining binding at 1 µM [25]: 94%; remaining binding at 1 µM [26]: 0%; remaining binding at 1 µM [27]: 96%; remaining binding at 1 µM [28]: 58%; remaining binding at 1 µM [29]: 24%; remaining binding at 1 µM [30]: 100%; remaining binding at 1 µM [31]: 95%; remaining binding at 1 µM [32]: 96%; remaining binding at 1 µM [33]: 87%; remaining binding at 1 µM [34]: 1.2%; remaining binding at 1 µM [35]: 100%; remaining binding at 1 µM [36]: 0.05%; remaining binding at 1 µM [37]: 0.2%; remaining binding at 1 µM [38]: 85%; remaining binding at 1 µM [39]: 94%
